Source: article PMC2769143, “Variations in IC50 Values with Purity of Mushroom Tyrosinase” (International Journal of Molecular Sciences, 2009)
Read-outs that look alike come from different tables or passages of the source.

Key:
mushroom tyrosinase = conditions: cited from earlier work
[1] = biological target: crude mushroom tyrosinase (MT) extract; experiment: DOPA oxidation (dopachrome, 475 nm) assay with crude MT extract, with 0.1% SDS; type: biochemical, White button mushrooms
Protocol: (§1) White button mushrooms were purchased from local stores and blended in 100 mM sodium phosphate (pH 6.0) containing 1 mM EDTA, 1 mM PMSF, 5 mM ascorbic acid and 1 M sucrose. The homogenates were filtered and stored at −15 °C in small aliquots. Commercial mushroom tyrosinase. Mushroom tyrosinase was dissolved in the above buffer without ascorbic acid at 2 mg dry weight/mL and stored at 5 °C in small aliquots.
(§2) Each one mL assay contained a final concentration of 100 mM sodium phosphate (pH 6.5) and 2 mM DOPA. Crude, commercial or partially purified tyrosinase was added to initiate the reaction. […] Rates were determined from the linear portion of the absorbance vs. time curves. Crude enzyme was use at a concentration of 0.1 units (8.4 μg protein) per mL in the assay and assayed in the presence of 0.1% SDS. Commercial tyrosinase was used at a concentration of 0.038 units (3.3 μg protein) per mL in the assay. The purified enzyme was used at a concentration of 0.0067 units (0.58 μg protein) per mL in the assay.
(§3) Various amounts of inhibitors were added into assays to determine a range of inhibitors needed to encompass the IC50 value. Then assays were repeated within this range of inhibitor concentrations. Rates were determined as above. […] For the crude and commercial MT, experiments were repeated at least twice and the average IC50 value reported. Because of the limited amount of purified tyrosinase, not all experiments could be repeated twice. In experiments requiring DMSO to dissolve the inhibitor, control assays contained the assay mixture with DMSO but minus inhibitor. Final DMSO concentrations were 5% or less in the assays.

[2] = biological target: commercial mushroom tyrosinase (MT) (Agaricus bisporus, UniProt C7FF04); experiment: DOPA oxidation (dopachrome, 475 nm) assay with commercial MT; type: biochemical; conditions: for IC50: read-out: IC50 Commer. MT
commercial mushroom tyrosinase (MT), sequence (C7FF04 1-392): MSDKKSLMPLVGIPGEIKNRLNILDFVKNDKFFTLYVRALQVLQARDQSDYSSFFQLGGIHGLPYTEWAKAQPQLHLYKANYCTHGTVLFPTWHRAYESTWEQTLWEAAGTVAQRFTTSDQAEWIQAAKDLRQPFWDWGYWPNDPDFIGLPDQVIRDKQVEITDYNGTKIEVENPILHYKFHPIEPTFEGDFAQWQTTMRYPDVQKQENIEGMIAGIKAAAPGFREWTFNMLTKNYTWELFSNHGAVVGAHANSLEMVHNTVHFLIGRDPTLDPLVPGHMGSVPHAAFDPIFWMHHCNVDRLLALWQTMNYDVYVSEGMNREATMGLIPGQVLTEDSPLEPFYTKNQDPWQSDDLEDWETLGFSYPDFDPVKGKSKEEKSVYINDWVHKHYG
commercial mushroom tyrosinase (MT), sequence (G1K3P4 entry or part of it, further chain): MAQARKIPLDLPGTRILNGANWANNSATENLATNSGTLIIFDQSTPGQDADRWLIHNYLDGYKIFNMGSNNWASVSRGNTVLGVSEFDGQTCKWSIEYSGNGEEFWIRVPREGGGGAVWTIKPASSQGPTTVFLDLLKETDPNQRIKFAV
Protocol: Commercial mushroom tyrosinase was purchased from Worthington Biochemical Corp. (Lakewood, NJ, USA). Substrates and inhibitors were obtained from Sigma-Aldrich (St. Louis, MO, USA). Anisaldehyde was obtained form J.T. Baker Chemical Co. (Phillipsburg, NJ, USA). Dimethyl sulfoxide (DMSO) was reagent grade from Sigma-Aldrich (St. Louis, MO, USA).
as §1, §2, §3

[3] = biological target: purified mushroom tyrosinase (MT) (Agaricus bisporus, UniProt C7FF04); experiment: DOPA oxidation (dopachrome, 475 nm) assay with partially purified commercial MT; type: biochemical
purified mushroom tyrosinase (MT), sequence (C7FF04 1-392): as the sequence (C7FF04 1-392) above
purified mushroom tyrosinase (MT), sequence (G1K3P4 entry or part of it, further chain): as the sequence (G1K3P4 entry or part of it, further chain) above
Protocol: as §2, §3

[4] = tested on: mushroom tyrosinase (crude, commercial and purified MT); experiment: DOPA oxidation assay, statements pooled over crude, commercial and purified MT; type: biochemical
Protocol: Each one mL assay contained a final concentration of 100 mM sodium phosphate (pH 6.5) and 2 mM DOPA. Crude, commercial or partially purified tyrosinase was added to initiate the reaction. Oxidation of DOPA into dopachrome was monitored at 475 nm. One unit of activity was defined as 1 μmole dopachrome formed per min per ml enzyme using an extinction coefficient of 3600 M^−1 cm^−1. Rates were determined from the linear portion of the absorbance vs. time curves. Crude enzyme was use at a concentration of 0.1 units (8.4 μg protein) per mL in the assay and assayed in the presence of 0.1% SDS. Commercial tyrosinase was used at a concentration of 0.038 units (3.3 μg protein) per mL in the assay. The purified enzyme was used at a concentration of 0.0067 units (0.58 μg protein) per mL in the assay.
Various amounts of inhibitors were added into assays to determine a range of inhibitors needed to encompass the IC50 value. Then assays were repeated within this range of inhibitor concentrations. Rates were determined as above. […] The concentration of inhibitor needed to inhibit 50% of the tyrosinase activity was extrapolated from % activity vs. [inhibitor] curves. For some inhibitors, we also used Statistical Data Analysis Software (SDAS, version 2008A) using an exponential equation to obtain a best fit curve and then to calculate IC50 values. For the crude and commercial MT, experiments were repeated at least twice and the average IC50 value reported. Because of the limited amount of purified tyrosinase, not all experiments could be repeated twice. In experiments requiring DMSO to dissolve the inhibitor, control assays contained the assay mixture with DMSO but minus inhibitor. Final DMSO concentrations were 5% or less in the assays.

O=C(CCc1ccc(O)cc1)c1c(O)cc(O)cc1O[C@@H]1O[C@H](CO)[C@@H](O)[C@H](O)[C@H]1O [phloridzin]
IC50 (mushroom tyrosinase; read-out: Reported IC50 Values): 110 µM
IC50 ([1]; 2 mM DOPA, pH 6.5, 0.1% SDS): 625 µM

Cn1cc[nH]c1=S [methimazole]
IC50 (mushroom tyrosinase; read-out: Reported IC50 Values): 200 µM
IC50 ([1]; 2 mM DOPA, pH 6.5, 0.1% SDS): 46 µM

[Cl-].[Na+] [NaCl]
IC50 (mushroom tyrosinase; DOPA as substrate, read-out: Reported IC50 Values): 25000 µM
IC50 ([1]; 2 mM DOPA, pH 6.5, 0.1% SDS): 65000 µM

N.N.S.S.[S]=[Mo]=[S] [ATTM, ammonium tetrathiomolybdate]
IC50 (mushroom tyrosinase; read-out: Reported IC50 Values): 2 µM
IC50 ([2]; 2 mM DOPA, pH 6.5): 3.3 µM
IC50 ([1]; 2 mM DOPA, pH 6.5, 0.1% SDS): 3.4 µM

CCCCCCc1ccc(O)cc1O [4-HR, 4-hexylresorcinol]
IC50 (mushroom tyrosinase; read-out: Reported IC50 Values): 0.85 µM
IC50 ([1]; 2 mM DOPA, pH 6.5, 0.1% SDS): 5.8 µM

COc1ccc(C(=O)O)cc1 [anisic acid]
IC50 (mushroom tyrosinase; read-out: Reported IC50 value): 680 µM

O=c1cc(CO)occ1O [kojic acid]
IC50 ([1]; 2 mM DOPA, pH 6.5, 0.1% SDS): 36 µM

Oc1ccc(O)cc1 [hydroquinone]
IC50 (mushroom tyrosinase; read-out: Reported IC50 Values): 26 µM
Effect on commercial MT activity [2]: activates ^e
Concentration up to which crude MT is activated ([1]; 2 mM DOPA): ≤ 100 µM
Effect on crude MT activity ([1]; 2 mM DOPA): activates ^d
Effect on purified MT activity [3]: activates ^f

CSC [dimethyl sulfide]
Inhibition of MT ([4]; up to 500 μM, any of the MT samples): Little to no inhibition
Inhibition of commercial MT ([2]; to 500 μM): NI to 500 μM
Inhibition of crude MT ([1]; to 500 μM): NI to 500 μM
Inhibition of purified MT ([3]; to 500 μM): NI to 500 μM

lysozyme
Reported inhibition of MT (mushroom tyrosinase; MT and lysozyme incubated for one hour before assaying): 30%
Reported IC50 value (mushroom tyrosinase): 4.6 µg/mL
Reported inhibition of MT (mushroom tyrosinase; mixing MT with lysozyme just before assaying): 8%
IC50 (mushroom tyrosinase; read-out: Reported IC50 Values): 0.32 µM
IC50 Commer. MT ([2]; 2 mM DOPA, pH 6.5): >20 mg/mL ^h
IC50 Crude MT ([1]; 2 mM DOPA, pH 6.5, 0.1% SDS): >10 mg/mL ^g
IC50 Purified MT ([3]; 2 mM DOPA, pH 6.5): >20 mg/mL ^i

O=S(=O)([O-])[O-].[Zn+2] [ZnSO4]
IC50 (mushroom tyrosinase; assay coupling DOPA oxidation to thymol blue coloration, read-out: Reported IC50 Values): 50 µM
Inhibition of MT ([4]; concentrations up to 1 mM): no inhibition
Inhibition of commercial MT ([2]; at 1 mM): none@1 mM
Inhibition of crude MT ([1]; at 1 mM): none@1 mM
Inhibition of purified MT ([3]; at 1 mM): none@1 mM

O=c1ccc2cc(O)c(O)cc2o1 [esculetin]
IC50 ([1]; 2 mM DOPA, pH 6.5, 0.1% SDS): 70 µM

COc1ccc(C=O)cc1 [anisaldehyde]
IC50 (mushroom tyrosinase; read-out: Reported IC50 Values): 160 µM
IC50 ([4]; 2 mM DOPA, read-out: IC50, range between crude, commercial and purified MT): 1000 to 1800 µM
IC50 ([1]; 2 mM DOPA, pH 6.5, 0.1% SDS): 1000 µM

CS(C)(=O)=O [dimethyl sulfone]
Inhibition of tyrosinase ([4]; up to 2 mM): relatively little inhibition
Inhibition of commercial MT ([2]; to 2 mM): NI to 2 mM
Inhibition of crude MT ([1]; to 2 mM): NI to 2 mM
Inhibition of purified MT ([3]; to 2 mM): NI to 2 mM

O=c1cccccc1O [tropolone]
IC50 (mushroom tyrosinase; read-out: Reported IC50 Values): 0.4 µM
IC50 ([1]; 2 mM DOPA, pH 6.5, 0.1% SDS): 0.39 µM

4,4’-dihydroxy-biphenyl [biphenol]
IC50 (mushroom tyrosinase; tyrosine as substrate, read-out: Reported IC50 Values): 1.9 µM
IC50 ([2]; 2 mM DOPA, pH 6.5): 10 µM
IC50 ([1]; 2 mM DOPA, pH 6.5, 0.1% SDS): 50 µM
Concentration beyond which purified MT activity increases ([3]; 2 mM DOPA): > 100 µM
IC50 ([3]; 2 mM DOPA, pH 6.5): 67 µM
